The values below come from patent US10683278B2 (JINAN UNIVERSITY, priority 2015, dated 2020).

The test deals with T1, AXL kinase (Homo sapiens, UniProt P30530).
T1 construct: purchased Invitrogen PV4803
T1 sequence (P30530 26-894): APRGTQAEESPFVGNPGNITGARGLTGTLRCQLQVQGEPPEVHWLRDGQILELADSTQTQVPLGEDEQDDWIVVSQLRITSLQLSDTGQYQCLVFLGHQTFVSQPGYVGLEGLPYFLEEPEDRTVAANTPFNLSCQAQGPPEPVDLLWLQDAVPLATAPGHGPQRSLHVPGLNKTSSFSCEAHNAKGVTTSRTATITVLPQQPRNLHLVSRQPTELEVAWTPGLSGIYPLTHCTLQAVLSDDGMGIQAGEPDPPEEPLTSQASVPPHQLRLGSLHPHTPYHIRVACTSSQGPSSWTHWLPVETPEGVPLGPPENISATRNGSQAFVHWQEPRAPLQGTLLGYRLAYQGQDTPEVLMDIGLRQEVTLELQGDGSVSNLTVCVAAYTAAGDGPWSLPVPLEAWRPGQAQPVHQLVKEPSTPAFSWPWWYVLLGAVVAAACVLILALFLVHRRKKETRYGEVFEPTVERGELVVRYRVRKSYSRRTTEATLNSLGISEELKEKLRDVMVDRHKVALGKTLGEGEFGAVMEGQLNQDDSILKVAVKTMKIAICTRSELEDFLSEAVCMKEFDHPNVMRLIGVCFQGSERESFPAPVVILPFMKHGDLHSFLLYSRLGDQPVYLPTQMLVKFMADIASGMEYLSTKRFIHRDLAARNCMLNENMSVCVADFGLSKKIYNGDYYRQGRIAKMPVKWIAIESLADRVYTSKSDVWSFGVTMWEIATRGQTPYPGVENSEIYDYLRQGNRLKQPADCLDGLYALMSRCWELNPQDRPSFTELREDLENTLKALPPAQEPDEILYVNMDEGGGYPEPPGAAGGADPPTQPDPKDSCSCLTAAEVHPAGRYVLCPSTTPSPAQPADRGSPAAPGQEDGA
Kind of test: IC50 test on AXL kinase (Z′-LYTE FRET kinase activity detection). The following applies: Z′-LYTE FRET peptide assay, 1 h reaction. Type of test: biochemical. The source says:
Kinase activity detection: The activity of compounds on kinases was detected by a secondary reaction which used the Z′-LYTE™ technique (a detection using fluorescence, enzyme coupling, and based on differences in susceptibility of phosphorylated and non-phosphorylated polypeptides to proteolytic cleavage), followed the fluorescence resonance energy transfer (FRET) principle, and used Z′-LYTE™ FRET peptide substrates (Invitrogen, Z′-LYTE™ KINASE ASSAY KIT—TYR 2 PEPTIDE, PV3191). AXL kinase (invitrogen, PV4803) was diluted stepwise, FRET peptide was then added, followed by ATP, then by compounds at different concentrations, reacted for 1 h, site-specific proteases were then added to recognize and cleave non-phosphorylated FRET peptides, reacted for 1 h, and […] at 445 nm and 520 nm were detected using excitation wavelength of 400 nm.
The IC50 is the point on the concentration scale where inhibition reaches its midpoint. Take `CCc1ccc2c(c1)c(=O)c(C(=O)Nc1ccc(Oc3ncnc4[nH]ccc34)c(F)c1)c(C)n2C` [TL4800147]: the IC50 amounted to 157 nM. With `Cc1c(C(=O)Nc2ccc(Oc3ncnc4[nH]cc(-c5ccccc5)c34)c(F)c2)c(=O)c2cc(-c3ccccc3)ccc2n1C` [TL50163, N-(3-fluoro-4-(5-phenyl-7H-pyrrolo[2,3-d]pyrimidin-4-yloxy)phenyl)-1,2-dimethyl-4-oxo-6-phenyl-1,4-dihydroquinoline-3-carboxamide] the figure was over 10000 nM; with `Cc1c(C(=O)Nc2ccc(Oc3ncnc4[nH]cc(-c5ccccc5)c34)c(F)c2)c(=O)c2c(Cl)cccc2n1C` [TL50081, 5-chloro-N-(3-fluoro-4-((5-phenyl-7H-pyrrolo[2,3-d]pyrimidin-4-yl)oxy)phenyl)-1,2-dimethyl-4-oxo-1,4-dihydroquinoline-3-carboxamide], over 10000 nM. With `CC1COc2c(N3CCN(C)CC3)c(F)cc3c(=O)c(C(=O)Nc4ccc(Oc5ncnc6[nH]cc(-c7ccccc7)c56)c(F)c4)cn1c23` (centres unmarked) [TL4800088, 9-fluoro-N-(3-fluoro-4-((5-phenyl-7H-pyrrolo[2,3-d]pyrimidin-4-yl)oxy)phenyl)-3-methyl-10-(4-methylpiperazin-1-yl)-7-oxo-3,7-dihydro-2H-[1,4]oxazino[2,3,4-ij]quinoline-6-carboxamide] the figure was 429 nM; with `Cc1c(C(=O)Nc2ccc(Oc3ncnc4[nH]cc(-c5ccccc5)c34)c(F)c2)c(=O)c2ccc(C(F)(F)F)cc2n1C` [TL50086, N-(3-fluoro-4-(5-phenyl-7H-pyrrolo[2,3-d]pyrimidin-4-yloxy)phenyl)-1,2-dimethyl-4-oxo-7-(trifluoromethyl)-1,4-dihydroquinoline-3-carboxamide], over 10000 nM.

`CCCc1ccc2c(c1)c(=O)c(C(=O)Nc1ccc(Oc3ncnc4[nH]cc(-c5ccccc5)c34)c(F)c1)c(C)n2C` [TL4800116, N-(3-fluoro-4-((5-phenyl-7H-pyrrolo[2,3-d]pyrimidin-4-yl)oxy)phenyl)-1,2-dimethyl-4-oxo-6-propyl-1,4-dihydroquinoline-3-carboxamide] gave an IC50 of 61 nM. With `CCCCn1c(C)c(C(=O)Nc2ccc(Oc3ncnc4[nH]cc(-c5ccccc5)c34)c(F)c2)c(=O)c2cc(C)ccc21` [TL4800080, 1-butyl-N-(3-fluoro-4-((5-phenyl-7H-pyrrolo[2,3-d]pyrimidin-4-yl)oxy)phenyl)-2,6-dimethyl-4-oxo-1,4-dihydroquinoline-3-carboxamide] the figure was 476 nM. The figure for `CCc1ccc2c(c1)c(=O)c(C(=O)Nc1ccc(Oc3ncnc4[nH]cc(-c5ccccc5)c34)c(F)c1)cn2C` [TL4800178, 6-ethyl-N-(3-fluoro-4-(5-phenyl-7H-pyrrolo[2,3-d]pyrimidin-4-yloxy)phenyl)-1-methyl-4-oxo-1,4-dihydroquinoline-3-carboxamide] is 56 nM. Take `Cc1cc2c3c(c1)c(=O)c(C(=O)Nc1ccc(Oc4ncnc5[nH]cc(-c6ccccc6)c45)c(F)c1)cn3CCC2` [TL4800160, N-(3-fluoro-4-((5-phenyl-7H-pyrrolo[2,3-d]pyrimidin-4-yl)oxy)phenyl)-9-methyl-1-oxo-1,5,6,7-tetrahydropyrido[3,2,1-ij]quinoline-2-carboxamide]: the IC50 was determined as 129 nM. On to `CCc1c(C(=O)Nc2ccc(Oc3ncnc4[nH]cc(-c5ccccc5)c34)c(F)c2)c(=O)c2cc(C)ccc2n1C` [TL4800139, 2-ethyl-N-(3-fluoro-4-(5-phenyl-7H-pyrrolo[2,3-d]pyrimidin-4-yloxy)phenyl)-1,6-dimethyl-4-oxo-1,4-dihydroquinoline-3-carboxamide], for which it took 78 nM to reach half-maximal inhibition (IC50). With `Cc1c(C(=O)Nc2ccc(Oc3ncnc4[nH]cc(-c5ccccc5)c34)c(F)c2)c(=O)c2cc(-c3cnn(C4CCNCC4)c3)ccc2n1C` [TL50180] the figure was over 10000 nM; with `COc1cc2ncnc(Oc3ccc(NC(=O)c4cn(C5CC5)c5c(F)c(N6CC(C)NC(C)C6)c(F)c(N)c5c4=O)cc3F)c2cc1OC` (centres unmarked) [TL4830044, 5-amino-1-cyclopropyl-N-(4-(6,7-dimethoxyquinazolin-4-yloxy)-3-fluorophenyl)-7-(3,5-dimethylpiperazin-1-yl)-6,8-difluoro-4-oxo-1,4-dihydroquinoline-3-carboxamide], 503 nM; with `Cc1c(C(=O)Nc2ccc(Oc3ncnc4[nH]cc(-c5ccccc5)c34)c(F)c2)c(=O)c2ccc(Cl)cc2n1C` [TL50080, 7-chloro-N-(3-fluoro-4-((5-phenyl-7H-pyrrolo[2,3-d]pyrimidin-4-yl)oxy)phenyl)-1,2-dimethyl-4-oxo-1,4-dihydroquinoline-3-carboxamide], over 10000 nM. `CCn1c(C)c(C(=O)Nc2ccc(Oc3ncnc4[nH]cc(-c5ccccc5)c34)c(F)c2)c(=O)c2cc(C)ccc21` [TL4800067, 1-ethyl-N-(3-fluoro-4-(5-phenyl-7H-pyrrolo[2,3-d]pyrimidin-4-yloxy)phenyl)-2,6-dimethyl-4-oxo-1,4-dihydroquinoline-3-carboxamide] had an IC50 of 146 nM. With `CCn1cc(C(=O)Nc2ccc(Oc3ncnc4cc(OC)c(OC)cc34)c(F)c2)c(=O)c2cc(F)c(N3CCNCC3)nc21` [GDL5000102, N-(4-((6,7-dimethoxyquinazolin-4-yl)oxy)-3-fluorophenyl)-1-ethyl-6-fluoro-4-oxo-7-(piperazin-1-yl)-1,4-dihydro-1,8-naphthyridine-3-carboxamide] the figure was 64 nM; with `Cc1c(C(=O)Nc2ccc(Oc3ncnc4[nH]cc(-c5ccccc5)c34)c(F)c2)c(=O)c2cc(C3CCCC3)ccc2n1C` [TL50161, 6-cyclopentyl-N-(3-fluoro-4-((5-phenyl-7H-pyrrolo[2,3-d]pyrimidin-4-yl)oxy)phenyl)-1,2-dimethyl-4-oxo-1,4-dihydroquinoline-3-carboxamide], 195 nM. With `CC1CCc2c(N3CCC(O)CC3)c(F)cc3c(=O)c(C(=O)Nc4ccc(Oc5ncnc6[nH]cc(-c7ccccc7)c56)c(F)c4)cn1c23` (centres unmarked) [GDL5000076, 9-fluoro-N-(3-fluoro-4-((5-phenyl-7H-pyrrolo[2,3-d]pyrimidin-4-yl)oxy)phenyl)-8-(4-hydroxypiperidin-1-yl)-5-methyl-1-oxo-1,5,6,7-tetrahydropyrido[3,2,1-ij]quinoline-2-carboxamide] the figure was 627 nM. The compound `COc1ccc2c(c1)c(=O)c(C(=O)Nc1ccc(Oc3ncnc4[nH]cc(-c5ccccc5)c34)c(F)c1)c(C)n2C` [TL4800005, N-(3-fluoro-4-((5-phenyl-7H-pyrrolo[2,3-d]pyrimidin-4-yl)oxy)phenyl)-6-methoxy-1,2-dimethyl-4-oxo-1,4-dihydroquinoline-3-carboxamide] gave an IC50 of 99 nM. “6-ethyl-N-(3-fluoro-4-(3-phenylfuro[2,3-b]pyridin-4-yloxy)phenyl)-1,2-dimethyl-4-oxo-1,4-dihydroquinoline-3-carboxamide [GDL5000039]”: the IC50 was 192 nM. `Cc1c(C(=O)Nc2ccc(Oc3ncnc4[nH]cc(-c5ccccc5)c34)c(F)c2)c(=O)c2cc(C3=CCCC3)ccc2n1C` [TL50160, 6-cyclopentenyl-N-(3-fluoro-4-((5-phenyl-7H-pyrrolo[2,3-d]pyrimidin-4-yl)oxy)phenyl)-1,2-dimethyl-4-oxo-1,4-dihydroquinoline-3-carboxamide] displayed an IC50 of 4530 nM. With `Cc1ccc2c(c1)c(=O)c(C(=O)Nc1ccc(Oc3ncnc4[nH]cc(-c5ccccc5)c34)c(F)c1)c(C)n2C` [TL50115, N-(3-fluoro-4-(5-phenyl-7H-pyrrolo[2,3-d]pyrimidin-4-yloxy)phenyl)-1,2,6-trimethyl-4-oxo-1,4-dihydroquinoline-3-carboxamide] the figure was 102 nM; with `CCc1ccc2c(c1)c(=O)c(C(=O)Nc1ccc(Oc3ccnc(N)c3)c(F)c1)c(C)n2C` [GDL5000050, N-(4-(2-aminopyridin-4-yloxy)-3-fluorophenyl)-6-ethyl-1,2-dimethyl-4-oxo-1,4-dihydroquinoline-3-carboxamide], 888 nM.

In turn, `Cc1ccc2c(c1)c(=O)c(C(=O)Nc1ccc(Oc3ncnc4[nH]cc(-c5ccccc5)c34)c(F)c1)cn2C` [TL4800167, N-(3-fluoro-4-(5-phenyl-7H-pyrrolo[2,3-d]pyrimidin-4-yloxy)phenyl)-1,6-dimethyl-4-oxo-1,4-dihydroquinoline-3-carboxamide] came in with an IC50 of 152 nM.
